Source: patent US12029791B2, “Therapeutic conjugates” (Totus Medicines Inc., priority 2019, dated 2024)

These compounds were tested on PI3-kinase (assay: NanoBRET screening of ARCS for covalent binding in transfected HEK293 cells). Conditions: HEK293 cells transfected with NanoLuc-target fusion, overnight incubation, washout.
Parameters: species or system Human
Experimental: Human embryonic kidney 293-H (HEK 293, Gibco 293-H, #11631017) cell lines are maintained in Dulbecco's Modified Eagle Medium, high glucose, pyruvate (DMEM, Gibco, #11995065) supplemented with 10% fetal bovine serum (FBS, Gibco, #10082147) and 1× penicillin-streptomycin (100× solution, Gibco, #15140148) at 37° C. and 5% CO2 in a water-saturated incubator. Cell are trypsinized using 0.05% or 0.25% Trypsin-EDTA solution (Trypsin-EDTA, phenol red, Gibco, #25200056 (0.25%) or #25300054). Opti-MEM media supplemented with 10% fetal bovine serum (Opti-MEM I reduced serum media, no phenol red, Gibco, #11058021) is used for culturing cells overnight for NanoBRET readout experiments.
HEK293 cells are cultivated appropriately prior to assay. The medium from cell flask is removed via aspiration, washed 1× with PBS followed by aspiration, trypsinized, and cells are allowed to dissociate from the flask. Trypsin is neutralized using growth medium and cells are pelleted via centrifugation at 200×g for 5 minutes. The medium is aspirated and the cells are resuspended into a single cell suspension using Opti-MEM I supplemented with 10% FBS. The cell density is adjusted to 2×10^5/mL in Opti-MEM I supplemented with 10% FBS in a sterile, conical tube. The cells are transfected and aliquoted directly in a 96-well plate for the NanoBRET assay the next day, and therefore, the cells are cultured overnight in Opti-MEM. The cells are also transfected in bulk and dispensed into a 96-well plate to allow cells to adhere to the plate overnight, thereby enabling washout studies.
The lipid:DNA complexes are prepared as follows:
A 10 μg/mL solution of DNA is prepared in Opti-MEM without serum. This solution contains the following ratios of carrier DNA and DNA encoding NanoLuc fused to the biological target. Serial dilution steps may be warranted to accurately dilute the NanoLuc fusion DNA. Added, in order, the following reagents to a sterile polystyrene test tube: 1 mL of Opti-MEM without phenol red; 9.0 μg/mL of carrier DNA; 1.0 μg/mL of NanoLuc fusion DNA (for some targets, the amount is less). The reagents are mixed thoroughly.
30 μL of FuGENE HD is added into each mL of DNA mixture to form lipid:DNA complex. […] It is mixed by pipetting up and down 5-10 times and incubated at room temperature for 20 minutes to allow complexes to form. 1 part (e.g. 1 mL) of lipid:DNA complex is mixed with 20 parts (e.g. 20 mL) of HEK293 cells in suspension at 2×10^5/mL and mixed gently by pipetting up and down 5 times in a sterile, conical tube. Larger or smaller bulk transfections are scaled accordingly, using this ratio. 100 μL cells+lipid:DNA complex is dispensed into a sterile, tissue-culture treated 96-well plate (20,000 cells/well), and incubated at least 16 hours to allow expression. The cells are incubated in a 37° C.+5% CO2 incubator for >16 hrs. A serially diluted inhibitor or test compound is prepared at 100× final concentration in 100% DMSO. The serially diluted inhibitor stock is prepared in PCR plates. 1 μL per well of 100× serially diluted inhibitor/test compound is added to the cells in 96-well plates that have been transiently transfected overnight and mixed by tapping the plate by hand. The plate is incubated at 37° C.+5% CO2 incubator overnight. A 1× solution of substrate mix (500× stock) and appropriate concentration of tracer is prepared in Opti-Mem. The cells are washed by setting a plate washer to the 96 well plate 5× in PBS pH 7.4 by adding 200 μL PBS each time. The cells are incubated at 37° C. for 2 hours. 100 μL of the 1× Substrate-Tracer solution is added and the 96 well plate is gently tapped to mix. The plate on plate reader is read every hour for the next 6 hours. The binding assays of some ARCS are shown below. Compound 1-XXXII formed a covalent bond with PI3-kinase from about 5% to 20%. ARCS selected from the group consisting of Compounds 1-101, 1-102, 1-113, 1-114, 1-119, 1-120, 1-125 and 1-126 formed a covalent bond with PI3-kinase from about 80% to 100%. […]

Row | Structure (SMILES) | Binding (Percent inhibition)
1 | C=CC(=O)CCC(=O)N1CCN(Cc2cc3c(N4CCOCC4)nc(-c4cnc(NC(=O)OC)cc4C(F)(F)F)nn3c2)CC1 [Compound 1-101] | +++ (>80%)
2 | C=CC(=O)NCC(=O)N1CCN(Cc2cc3c(N4CCOCC4)nc(-c4cnc(NC(=O)OC)cc4C(F)(F)F)nn3c2)CC1 [Compound 1-102] | +++ (>80%)
3 | COC(=O)Nc1cc(C(F)(F)F)c(-c2nc(N3CCOCC3)c3cc(CN4CCN(C(=O)CCC(=O)C=C(C)C)CC4)cn3n2)cn1 [Compound 1-113] | +++ (>80%)
4 | COC(=O)Nc1cc(C(F)(F)F)c(-c2nc(N3CCOCC3)c3cc(CN4CCN(C(=O)CNC(=O)C=C(C)C)CC4)cn3n2)cn1 [Compound 1-114] | +++ (>80%)
5 | COC(=O)Nc1cc(C(F)(F)F)c(-c2nc(N3CCOCC3)c3cc(CN4CCN(C(=O)CCC(=O)/C=C/CN(C)C)CC4)cn3n2)cn1 [Compound 1-119] | +++ (>80%)
6 | COC(=O)Nc1cc(C(F)(F)F)c(-c2nc(N3CCOCC3)c3cc(CN4CCN(C(=O)CNC(=O)/C=C/CN(C)C)CC4)cn3n2)cn1 [Compound 1-120] | +++ (>80%)
7 | CC#CC(=O)CCC(=O)N1CCN(Cc2cc3c(N4CCOCC4)nc(-c4cnc(NC(=O)OC)cc4C(F)(F)F)nn3c2)CC1 [Compound 1-125] | +++ (>80%)
8 | CC#CC(=O)NCC(=O)N1CCN(Cc2cc3c(N4CCOCC4)nc(-c4cnc(NC(=O)OC)cc4C(F)(F)F)nn3c2)CC1 [Compound 1-126] | +++ (>80%)
9 | C=CC(=O)Nc1ccc(C(=O)N2CCN(Cc3cc4c(N5CCOCC5)nc(-c5cnc(NC(=O)OC)cc5C(F)(F)F)nn4c3)CC2)cc1 [Compound 1-171] | ++ (50-80%)
10 | C=CC(=O)Nc1ccc(CCNCc2cc3c(N4CCOCC4)nc(-c4cnc(NC(=O)OC)cc4C(F)(F)F)nn3c2)cc1 [Compound 1-172] | ++ (50-80%)
11 | COC(=O)Nc1cc(C(F)(F)F)c(-c2nc(N3CCOCC3)c3cc(CN4CCNCC4)cn3n2)cn1 [Compound 1-XXXII] | + (<20%)
